Laboratory results from ChEMBL document CHEMBL1201862, “PubChem BioAssay data set” (2004).
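Briefly, cells in 96-well plates were exposed to five compound concentrations for 48 h, and endpoints were estimated by linear interpolation. The concentration for 50% growth inhibition is given as GI50.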 Activity calls are given as the source filed them. Cut-off read from the data, not from the text of the source: active = GI50 up to about 1.1 µM and inactive = higher.

Legend:
Test in all cases: NCI tumour cell line growth inhibition, 48 h
UACC-257 = tested on: UACC-257
SF-539 = tested on: SF-539
SF-295 = tested on: SF-295
SW-620 = tested on: SW-620
HL-60 = tested on: HL-60
M19-MEL = tested on: M19-MEL
LOX IMVI = tested on: LOX IMVI
MDA-N = tested on: MDA-N
SF-268 = tested on: SF-268
OVCAR-4 = tested on: OVCAR-4
KM-20L2 = tested on: KM-20L2
NCI-H460 = tested on: NCI-H460
HCT-116 = tested on: HCT-116
LXFL 529 = tested on: LXFL 529
U-251 = tested on: U-251
HT-29 = tested on: HT-29
MOLT-4 = tested on: MOLT-4
K562 = tested on: K562
TK-10 = tested on: TK-10
COLO 205 = tested on: COLO 205

| Compound | GI50 (UACC-257) | GI50 (SF-539) | GI50 (SF-295) | GI50 (SW-620) | GI50 (HL-60) | GI50 (M19-MEL) | GI50 (LOX IMVI) | GI50 (MDA-N) | GI50 (SF-268) | GI50 (OVCAR-4) | GI50 (KM-20L2) | GI50 (NCI-H460) | GI50 (HCT-116) | GI50 (LXFL 529) | GI50 (U-251) | GI50 (HT-29) | GI50 (MOLT-4) | GI50 (K562) | GI50 (TK-10) | GI50 (COLO 205) |
| --- | --- | --- | --- | --- | --- | --- | --- | --- | --- | --- | --- | --- | --- | --- | --- | --- | --- | --- | --- | --- |
| COc1cc2nncc(SCc3ccc(Cl)c(Cl)c3)c2cc1OC | > 56.4 µM (inactive) | 35.6 µM (inactive) | > 69.3 µM (inactive) | > 100 µM (inactive) | > 50.8 µM (inactive) | > 100 µM (inactive) | 26.2 µM (inactive) | > 100 µM (inactive) | > 69.5 µM (inactive) | > 49.9 µM (inactive) | 6.85 µM (inactive) | > 72.3 µM (inactive) | > 100 µM (inactive) | 17.7 µM (inactive) | 50.5 µM (inactive) | > 100 µM (inactive) | > 100 µM (inactive) | > 94.8 µM (inactive) | 82.4 µM (inactive) | > 100 µM (inactive) |
| CCC1C(=O)OCc2c1cc1n(c2=O)C(CC)c2c-1nc1ccccc1c2Cl (configuration not stated) | 29.6 µM (inactive) | 17.3 µM (inactive) | 23.4 µM (inactive) | 24 µM (inactive) | 22.2 µM (inactive) | 32.4 µM (inactive) | 33.1 µM (inactive) | – | 23.9 µM (inactive) | 22.4 µM (inactive) | 31.3 µM (inactive) | 15.1 µM (inactive) | – | 25.9 µM (inactive) | 19.3 µM (inactive) | 24.1 µM (inactive) | 10.4 µM (inactive) | 27.9 µM (inactive) | 40.9 µM (inactive) | 16.2 µM (inactive) |
| CCOC(=O)NC1CC2CCC1(OC)C=C2C (configuration not stated) | > 100 µM (inactive) | > 100 µM (inactive) | > 100 µM (inactive) | > 90.6 µM (inactive) | > 100 µM (inactive) | > 100 µM (inactive) | > 100 µM (inactive) | – | > 100 µM (inactive) | > 100 µM (inactive) | > 100 µM (inactive) | > 100 µM (inactive) | > 100 µM (inactive) | > 100 µM (inactive) | > 100 µM (inactive) | > 100 µM (inactive) | > 100 µM (inactive) | > 100 µM (inactive) | > 100 µM (inactive) | > 100 µM (inactive) |
| COC(=O)c1nc(N)nc(C(=O)OC)c1C(=O)c1ccccc1 | > 100 µM (inactive) | > 100 µM (inactive) | > 100 µM (inactive) | > 100 µM (inactive) | > 100 µM (inactive) | > 100 µM (inactive) | > 100 µM (inactive) | – | > 100 µM (inactive) | – | > 100 µM (inactive) | > 100 µM (inactive) | > 100 µM (inactive) | > 100 µM (inactive) | > 100 µM (inactive) | > 100 µM (inactive) | > 100 µM (inactive) | > 100 µM (inactive) | > 100 µM (inactive) | – |
| COc1cc([C@@H]2c3cc4c(cc3[C@@H](NC(=O)c3ccc(C(C)=O)cc3)C3COC(=O)[C@@H]32)OCO4)cc(OC)c1O (some centres not stated) | 3.88 µM (inactive) | 0.316 µM (active) | 0.6 µM (active) | 0.24 µM (active) | 0.0867 µM (active) | 3.01 µM (inactive) | 0.289 µM (active) | – | 1.09 µM (active) | 27.3 µM (inactive) | 0.724 µM (active) | < 0.01 µM (active) | 0.52 µM (active) | 5.56 µM (inactive) | 0.0743 µM (active) | 1.5 µM (inactive) | < 0.01 µM (active) | 1.48 µM (inactive) | 5.81 µM (inactive) | 3.61 µM (inactive) |
| CC1=CC(C)(C)N=C2SC(c3ccc(N)cc3)=NN12 | > 94 µM (inactive) | > 100 µM (inactive) | > 91.8 µM (inactive) | > 41 µM (inactive) | 18.1 µM (inactive) | 63.1 µM (inactive) | > 58.5 µM (inactive) | – | > 67.6 µM (inactive) | > 93.8 µM (inactive) | 46.6 µM (inactive) | 52.4 µM (inactive) | 41 µM (inactive) | 31.6 µM (inactive) | 59.8 µM (inactive) | 32.1 µM (inactive) | 42.2 µM (inactive) | 32.6 µM (inactive) | > 100 µM (inactive) | 42.8 µM (inactive) |
| COc1ccc(N2C(=O)[C@@H]3[C@@H]4CC(C)CC[C@@H]4c4c([nH]c5ccccc45)[C@@H]3C2=O)cc1 (some centres not stated) | 53.8 µM (inactive) | 8.38 µM (inactive) | 12.4 µM (inactive) | 13.1 µM (inactive) | 29.1 µM (inactive) | > 70.1 µM (inactive) | 10.5 µM (inactive) | – | 13.3 µM (inactive) | 18 µM (inactive) | > 54.8 µM (inactive) | 13.5 µM (inactive) | 6.44 µM (inactive) | 20.3 µM (inactive) | 11.4 µM (inactive) | 47.4 µM (inactive) | 19.8 µM (inactive) | 30.7 µM (inactive) | 18.8 µM (inactive) | 33 µM (inactive) |
| O=C1NC(=O)C2C(=O)NC(=O)C1C2(c1ccccc1)c1ccc(Cl)cc1 (configuration not stated) | > 100 µM (inactive) | > 100 µM (inactive) | > 100 µM (inactive) | > 100 µM (inactive) | > 100 µM (inactive) | > 100 µM (inactive) | > 100 µM (inactive) | – | > 100 µM (inactive) | > 100 µM (inactive) | > 100 µM (inactive) | > 100 µM (inactive) | – | > 100 µM (inactive) | – | > 100 µM (inactive) | > 100 µM (inactive) | > 100 µM (inactive) | > 100 µM (inactive) | > 100 µM (inactive) |
| O=C(Nc1c(Cl)cc([N+](=O)[O-])cc1Cl)C(=O)C(C1OC(=O)c2ccccc21)[N+](=O)[O-] (configuration not stated) | > 100 µM (inactive) | > 100 µM (inactive) | > 100 µM (inactive) | > 100 µM (inactive) | > 100 µM (inactive) | > 100 µM (inactive) | 81.7 µM (inactive) | – | > 100 µM (inactive) | > 100 µM (inactive) | > 100 µM (inactive) | > 100 µM (inactive) | > 100 µM (inactive) | > 100 µM (inactive) | > 100 µM (inactive) | > 100 µM (inactive) | > 100 µM (inactive) | > 100 µM (inactive) | > 100 µM (inactive) | > 100 µM (inactive) |
| Cc1noc(/N=C2\C=C(Nc3onc(C)c3C)C(=O)c3ccccc32)c1C | 36.7 µM (inactive) | > 100 µM (inactive) | > 100 µM (inactive) | > 100 µM (inactive) | 18.7 µM (inactive) | 3.98 µM (inactive) | 11 µM (inactive) | – | 86.3 µM (inactive) | > 100 µM (inactive) | > 100 µM (inactive) | > 100 µM (inactive) | 95.5 µM (inactive) | 25.5 µM (inactive) | 46.1 µM (inactive) | > 100 µM (inactive) | > 100 µM (inactive) | 8.81 µM (inactive) | > 100 µM (inactive) | > 100 µM (inactive) |
| O=C(CCN(C(=O)O)S(=O)(=O)c1ccc(NC(=O)c2ccccc2)cc1)NC1CCCCC1 | > 100 µM (inactive) | > 100 µM (inactive) | > 100 µM (inactive) | 16.3 µM (inactive) | 30.3 µM (inactive) | 59.7 µM (inactive) | > 100 µM (inactive) | – | > 100 µM (inactive) | > 100 µM (inactive) | > 100 µM (inactive) | 42.4 µM (inactive) | > 100 µM (inactive) | > 100 µM (inactive) | 36.3 µM (inactive) | 21.6 µM (inactive) | 21.4 µM (inactive) | 27.4 µM (inactive) | > 100 µM (inactive) | 47.4 µM (inactive) |
| CCOC(=O)C1=C(N)N(c2ccccc2)/C(=C(/C#N)c2nc3ccccc3[nH]2)S1 | > 100 µM (inactive) | > 100 µM (inactive) | > 100 µM (inactive) | > 100 µM (inactive) | > 100 µM (inactive) | > 100 µM (inactive) | > 100 µM (inactive) | – | 80.9 µM (inactive) | > 100 µM (inactive) | > 100 µM (inactive) | 43 µM (inactive) | > 100 µM (inactive) | > 100 µM (inactive) | > 100 µM (inactive) | > 100 µM (inactive) | > 100 µM (inactive) | > 100 µM (inactive) | > 100 µM (inactive) | > 100 µM (inactive) |
| CC(C)=CCCC(C)[C@H]1CC(O)C2(C)C3=CCC4C(C)(C)[C@@H](O)CC[C@]4(C)C3=CC[C@]12C (some centres not stated) | 22.5 µM (inactive) | 2.09 µM (inactive) | 2.24 µM (inactive) | 3.89 µM (inactive) | 3.69 µM (inactive) | 4.51 µM (inactive) | 0.0902 µM (active) | – | 6.01 µM (inactive) | 2.31 µM (inactive) | 6.58 µM (inactive) | 2.24 µM (inactive) | 2.4 µM (inactive) | 1.95 µM (inactive) | 2.28 µM (inactive) | 2.72 µM (inactive) | 15.2 µM (inactive) | 1.59 µM (inactive) | 16.7 µM (inactive) | 4.93 µM (inactive) |
| CC(=O)N/C=C/c1cc(O)ccc1O | 31 µM (inactive) | 35.5 µM (inactive) | 32.3 µM (inactive) | 13.9 µM (inactive) | 10.1 µM (inactive) | 31.5 µM (inactive) | 30.1 µM (inactive) | – | 31.8 µM (inactive) | 32.6 µM (inactive) | 40.8 µM (inactive) | > 60.7 µM (inactive) | 32.5 µM (inactive) | 12.7 µM (inactive) | 37.2 µM (inactive) | 32.1 µM (inactive) | 11.9 µM (inactive) | 35.9 µM (inactive) | 39.2 µM (inactive) | 29.1 µM (inactive) |
